By IC50 is commonly meant the concentration that inhibits the measured activity by half.

Data on 17 molecules can be found in patent US20240279207A1, “SUBSTITUTED ACYL SULFONAMIDES FOR TREATING CANCER” (The Broad Institute, Inc., priority 2020, published 2024).

pIC50: −log10 of the molar value. Like-named read-outs stand apart in the source and are kept apart here. Some results are limits rather than exact numbers.

The target of experiment [1] is T1, Recombinant human His-tagged Kat6a protein (amino acids 194-810) (Homo sapiens, UniProt Q92794).
T1 construct: Kat6a protein (amino acids 194-810); His
T1 sequence (Q92794 194-810): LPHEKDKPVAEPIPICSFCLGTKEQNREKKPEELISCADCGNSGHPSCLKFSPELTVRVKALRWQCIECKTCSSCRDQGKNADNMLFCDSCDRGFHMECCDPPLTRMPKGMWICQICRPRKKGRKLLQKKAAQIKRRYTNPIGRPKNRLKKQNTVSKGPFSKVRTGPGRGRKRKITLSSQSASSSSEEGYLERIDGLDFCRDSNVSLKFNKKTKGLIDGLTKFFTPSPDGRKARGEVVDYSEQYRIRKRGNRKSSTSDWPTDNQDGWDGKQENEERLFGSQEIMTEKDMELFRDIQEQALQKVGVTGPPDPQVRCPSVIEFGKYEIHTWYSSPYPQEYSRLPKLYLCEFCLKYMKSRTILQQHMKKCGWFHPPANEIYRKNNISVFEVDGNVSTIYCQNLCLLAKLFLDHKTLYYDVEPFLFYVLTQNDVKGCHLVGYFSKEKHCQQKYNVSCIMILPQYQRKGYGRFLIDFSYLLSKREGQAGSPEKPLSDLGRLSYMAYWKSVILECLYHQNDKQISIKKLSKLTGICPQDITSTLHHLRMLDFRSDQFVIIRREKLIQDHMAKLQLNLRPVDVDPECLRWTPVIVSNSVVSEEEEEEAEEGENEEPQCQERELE
Kind of experiment: Kat6a activity assay (TR-FRET, acetylation of Histone-H4-derived peptide). The settings on record: 60 mins at 22° C., 220 nM H4 peptide, 600 nM Acetyl Coenzyme A, read-out: KAT6A - DPF/HAT domain IC50 [mol/l] (arithmetic mean). The class given is biochemical.

In experiment [2] the test system is ESR1 transcription in MVLN cells. Kind of experiment: MVLN reporter assay: repression of ESR1 transcription (luciferase signal). The class given is cell-based. To be noted: Homo sapiens, MVLN, 24 h, luciferase signal after 24 h, read-out: MVLN reporter assay, IC50 [M] (arithmetic mean). In a few lines:
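MVLN cells, expressing ER and stably carrying a vitellogenin A2 ERE-luciferase reporter, treated with compound in duplicate; luciferase read after 24 h with Steadylite plus. Cell density checked in parallel by Alamar Blue fluorescence (530/590 nm, 2 h) before the luciferase read.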
A general note: Reporter assays use an easily measured gene product as a stand-in for the process of interest.

A further experiment deals with ZR-75-1 cells. Kind of experiment: ZR-75-1 proliferation assay. The format is cell-based. To be noted: Alamar Blue, read-out: ZR75-1 proliferation assay, EC50 [M] (arithmetic mean). An excerpt:
(§1) For compound characterization cell survival assays were routinely run in two cell lines. ZR-75-1 is a breast carcinoma cell line containing a focal KAT6A amplification and high KAT6A protein expression. Proliferation of this cell line is inhibited upon treatment with KAT6A inhibitors. As a negative control cell line MDA-MB-436 were used. These cells carry a […] deletion of the KAT6A gene, have a low KAT6A protein expression and are not growth inhibited upon treatment with KAT6A inhibitors.
(§2) For measurements cell lines were plated at the below indicated concentration per […] in 96-well plates in a humidified incubator at 37° C. and 5% CO2.
ZR-75-1 (ATCC, CRL-1500; breast carcinoma); 3000 cells per well; culture medium: RPMI 1640 (Biochrom #FG 1215) medium containing 2.5% FBS (Biochrom #S0615).
(§3) Each sample was prepared as triplicate and rim wells were excluded. Plates were incubated at 37° C. and 5% CO2 for 144 h. Cell viability was measured by adding 10 μL of Alamar Blue Reagent (Invitrogen #DAL 1100) and plates were incubated for 2 h at 37° C. and 5% CO2. Fluorescence was measured at 590 nm wavelength with a Tecan Spark or Victor X3 MTP-Reader (PerkinElmer).
For orientation: The colour change of resazurin is a common sign of viable cells or microbes.

Another experiment concerns LCLC97TM1. Kind of experiment: LCLC97TM1 proliferation assay. The format is cell-based. The settings on record: read-out: LCLC97TM1 proliferation assay, EC50 [M] (arithmetic mean).
Another experiment concerns MDA-MB-436 cells. Kind of experiment: MDA-MB-436 proliferation assay (negative control cell line). The class given is cell-based. To be noted: Homo sapiens, 144 h, Alamar Blue, read-out: MDA-MB-436 proliferation assay, EC50 [M] (arithmetic mean).
From the text: as §1, §2
MDA-MB-436 (CLS, 300278; breast adenocarcinoma); 3000 cells per well; culture medium: DMEM/Ham's F12 (Biochrom #FG 4815) medium containing 2.5% FBS (Biochrom #S0615).
as §3

Where [3] appears, read: Homo sapiens, LCLC-97TM1, LCLC97TM1.

As to `Cc1ccc2cccc(S(=O)(=O)NC(=O)c3cc4c(F)cc(N5CCC5C(C)(C)O)cc4o3)c2n1` (racemic) [Example 161, 4-Fluoro-6-[2-(1-hydroxy-1-methyl-ethyl)azetidin-1-yl]-N-[(2-methyl-8-quinolyl)sulfonyl]benzofuran-2-carboxamide (rac)], in experiment [1], the pIC50 was 5.96. The IC50 in experiment [2] is 5.92e-06 M. The EC50 was 7.56e-06 M in the experiment on ZR-75-1 cells (Homo sapiens, ZR-75-1, 144 h); over 2e-05 M in the experiment on LCLC97TM1 (setting [3]); over 2e-05 M in the experiment on MDA-MB-436 cells.
With `CCCOc1ccccc1S(=O)(=O)NC(=O)c1cc2c(F)cc(N3CCC3)cc2o1` [Example 133, 6-(Azetidin-1-yl)-4-fluoro-N-(2-propoxybenzene-1-sulfonyl)-1-benzofuran-2-carboxamide], in experiment [1], the pIC50 was 7.66. The IC50 in experiment [2] turned out to be 6.41e-08 M. Besides, the EC50 with ZR-75-1 cells (Homo sapiens, ZR-75-1, 144 h) was 1.61e-07 M; in the experiment on LCLC97TM1 (setting [3]), 6.64e-07 M; in the experiment on MDA-MB-436 cells it was over 2e-05 M.
With `Cc1ccc(OC(C)C)c(S(=O)(=O)NC(=O)c2cc3c(F)cc(N4CC(F)C4)cc3o2)c1` [Example 157, 4-Fluoro-6-(3-fluoroazetidin-1-yl)-N-{5-methyl-2-[(propan-2-yl)oxy]benzene-1-sulfonyl}-1-benzofuran-2-carboxamide], the pIC50 in experiment [1] is 7.43. The IC50 in experiment [2] was found to be 7.51e-08 M. For the same molecule, the EC50 with ZR-75-1 cells (Homo sapiens, ZR-75-1, 144 h) was 1.1e-07 M; in the experiment with LCLC97TM1 (setting [3]), 7.07e-07 M; in the experiment on MDA-MB-436 cells, over 2e-05 M.
Turning to `CC(Oc1ccccc1S(=O)(=O)NC(=O)c1cc2c(F)cc(N3CCC3)cc2o1)C(F)(F)F` (single isomer, unassigned) [Example 14], in experiment [1], the pIC50 is 7.55. For the same molecule, the IC50 in experiment [2] is 6.93e-08 M. The EC50 in the experiment with ZR-75-1 cells (144 h) is 9.93e-08 M; in the experiment with LCLC97TM1 (LCLC97TM1), 1.39e-06 M; in the experiment with MDA-MB-436 cells it was over 2e-05 M.
With `O=C(NS(=O)(=O)c1ccccc1-c1ccccc1)c1cc2ccc(N3CC(F)(F)C3)cc2o1` [Example 119, N-([1,1′-biphenyl]-2-sulfonyl)-6-(3,3-difluoroazetidin-1-yl)-1-benzofuran-2-carboxamide], the pIC50 in experiment [1] was 5.96. In experiment [2], the IC50 was found to be 3.04e-06 M. In addition, the EC50 in the experiment on ZR-75-1 cells (Homo sapiens, ZR-75-1, 144 h) is 3.7e-06 M; in the experiment with LCLC97TM1 (setting [3]), 1.46e-05 M; in the experiment on MDA-MB-436 cells, over 2e-05 M.
In the case of `Cc1ccc2cccc(S(=O)(=O)NC(=O)c3cc4c(F)cc(N5CCC5C(F)F)cc4o3)c2n1` (racemic) [Example 160, 6-[2-(Difluoromethyl)azetidin-1-yl]-4-fluoro-N-(2-methylquinoline-8-sulfonyl)-1-benzofuran-2-carboxamide (rac)], in experiment [1], the pIC50 is 6.69. Also, the IC50 in experiment [2] was determined as 1.45e-06 M. Further, the EC50 in the experiment with ZR-75-1 cells (Homo sapiens, ZR-75-1, 144 h) was 4.34e-06 M; in the experiment with LCLC97TM1 (setting [3]), over 2e-05 M; in the experiment on MDA-MB-436 cells, over 2e-05 M.
Consider `CCCOc1cccc(OCC)c1S(=O)(=O)NC(=O)c1cc2c(F)cc(N3CCC3)cc2o1` [Example 10, 6-(Azetidin-1-yl)-N-(2-ethoxy-6-propoxybenzene-1-sulfonyl)-4-fluoro-1-benzofuran-2-carboxamide], for which the pIC50 in experiment [1] was 8.15. Further, the IC50 in experiment [2] was 1.36e-07 M. Also, the EC50 in the experiment with ZR-75-1 cells (Homo sapiens, ZR-75-1, 144 h) was 2.21e-07 M; in the experiment on LCLC97TM1 (setting [3]) it was 6.61e-07 M; in the experiment on MDA-MB-436 cells, over 2e-05 M.
For `C=C(C)c1ccc(OC)c(S(=O)(=O)NC(=O)c2cc3c(F)cc(N4CCC4)cc3o2)c1` [Example 205, 6-(Azetidin-1-yl)-4-fluoro-N-[2-methoxy-5-(prop-1-en-2-yl)benzene-1-sulfonyl]-1-benzofuran-2-carboxamide], in that order: 8.10, 7.15e-08 M, 1.73e-07 M, 9.37e-07 M and over 2e-05 M.
On to `CC(C)c1ccc(OCC(F)(F)F)c(S(=O)(=O)NC(=O)c2cc3c(F)cc(N4CCC4)cc3o2)c1` [Example 215, 6-(azetidin-1-yl)-4-fluoro-N-[5-isopropyl-2-(2,2,2-trifluoroethoxy)phenyl]sulfonyl-benzofuran-2-carboxamide], for which the pIC50 in experiment [1] was 8.14. Further, the IC50 in experiment [2] was 7.43e-08 M. Besides, the EC50 is 5.82e-07 M in the experiment on ZR-75-1 cells (Homo sapiens, ZR-75-1, 144 h); 2.83e-06 M with LCLC97TM1 (setting [3]); over 2e-05 M in the experiment on MDA-MB-436 cells.
For `COc1ccc(N2CCCC2c2ccccc2)cc1S(=O)(=O)NC(=O)c1cc2c(F)cc(N3CCC3)cc2o1` (racemic) [Example 201, 6-(Azetidin-1-yl)-4-fluoro-N-[2-methoxy-5-(2-phenylpyrrolidin-1-yl)benzene-1-sulfonyl]-1-benzofuran-2-carboxamide (rac)], in that order: 9.09, 6.48e-07 M, 3.26e-06 M, 2.81e-06 M and over 2e-05 M.
On to `CCOc1cccc(OCc2ccccc2)c1S(=O)(=O)NC(=O)c1cc2c(F)cc(N3CCC3)cc2o1` [Example 7, 6-(Azetidin-1-yl)-N-[2-(benzyloxy)-6-ethoxybenzene-1-sulfonyl]-4-fluoro-1-benzofuran-2-carboxamide], for which the pIC50 in experiment [1] was 8.38. Further, the IC50 in experiment [2] amounted to 1.23e-07 M. Besides, the EC50 was 3.7e-07 M with ZR-75-1 cells (Homo sapiens, ZR-75-1, 144 h); 2.92e-07 M with LCLC97TM1 (setting [3]); over 2e-05 M in the experiment with MDA-MB-436 cells.
With `O=C(NS(=O)(=O)c1cccc2ccc(Cl)nc12)c1cc2c(F)cc(N3CCC3)cc2o1` [Example 132, 6-(Azetidin-1-yl)-N-(2-chloroquinoline-8-sulfonyl)-4-fluoro-1-benzofuran-2-carboxamide], the pIC50 in experiment [1] is 7.85. In experiment [2], the IC50 was found to be 5.41e-08 M. The EC50 stood at 1.08e-07 M in the experiment on ZR-75-1 cells (Homo sapiens, ZR-75-1, 144 h); 1.36e-07 M in the experiment on LCLC97TM1 (setting [3]); 1.22e-05 M with MDA-MB-436 cells.
As to `CCOc1ccccc1S(=O)(=O)NC(=O)c1cc2c(F)cc(N3CCC3C(F)F)cc2o1` (racemic) [Example 163, 6-[2-(Difluoromethyl)azetidin-1-yl]-N-(2-ethoxybenzene-1-sulfonyl)-4-fluoro-1-benzofuran-2-carboxamide (rac)], the pIC50 in experiment [1] is 6.06. In experiment [2], the IC50 came to 3.67e-06 M. Also, the EC50 is 6.67e-06 M with ZR-75-1 cells (Homo sapiens, ZR-75-1, 144 h); over 2e-05 M with LCLC97TM1 (setting [3]); over 2e-05 M in the experiment with MDA-MB-436 cells.
With `Cc1ccc(OC(C)C)c(S(=O)(=O)NC(=O)c2cc3c(F)cc(N4CCC4)cc3o2)c1` [Example 134, 6-(Azetidin-1-yl)-4-fluoro-N-{5-methyl-2-[(propan-2-yl)oxy]benzene-1-sulfonyl}-1-benzofuran-2-carboxamide], the pIC50 in experiment [1] is 7.74. For the same molecule, the IC50 in experiment [2] turned out to be 7.44e-08 M. In addition, the EC50 with ZR-75-1 cells (Homo sapiens, ZR-75-1, 144 h) was 8.18e-08 M; in the experiment with LCLC97TM1 (setting [3]), 3.76e-07 M; with MDA-MB-436 cells it was over 2e-05 M.
Regarding `Cc1cc2c(c(S(=O)(=O)NC(=O)c3cc4c(F)cc(N5CCC5)cc4o3)c1C)OC(C)(C)C2` [Example 204, 6-(Azetidin-1-yl)-4-fluoro-N-(2,2,5,6-tetramethyl-2,3-dihydro-1-benzofuran-7-sulfonyl)-1-benzofuran-2-carboxamide], the pIC50 in experiment [1] is 8.11. Also, the IC50 in experiment [2] was 1.79e-07 M. Besides, the EC50 worked out at 3.4e-07 M with ZR-75-1 cells (Homo sapiens, ZR-75-1, 144 h); 8.36e-07 M with LCLC97TM1 (setting [3]); 1.6e-06 M in the experiment on MDA-MB-436 cells.
For `CCc1ccc2cccc(S(=O)(=O)NC(=O)c3cc4c(F)cc(N5CCC5)cc4o3)c2n1` [Example 171, 6-(Azetidin-1-yl)-N-(2-ethylquinoline-8-sulfonyl)-4-fluoro-1-benzofuran-2-carboxamide], the pIC50 in experiment [1] was 7.80. For the same molecule, the IC50 in experiment [2] worked out at 6.68e-08 M. Moreover, the EC50 was 3.98e-07 M in the experiment with ZR-75-1 cells (Homo sapiens, ZR-75-1, 144 h); 4.4e-07 M in the experiment on LCLC97TM1 (setting [3]); over 2e-05 M with MDA-MB-436 cells.
Taken in the same sequence, the figures for `CCOc1ccc(C(C)(C)C)cc1S(=O)(=O)NC(=O)c1cc2c(F)cc(N3CCC3)cc2o1` [Example 78, 6-(azetidin-1-yl)-N-(5-tert-butyl-2-ethoxybenzene-1-sulfonyl)-4-fluoro-1-benzofuran-2-carboxamide] were 8.85, 4.95e-09 M, 5.87e-08 M, 5.75e-08 M and over 2e-05 M.
